SMILES strings stand for the structures. Bounds are passed on as bounds.

Assay in all cases: cells
Holding throughout (type): cell-based

The test system of test [1] is human normal liver cell HL7702. Particulars: human normal hepatocytes HL7702, cultured 48 h, MTT. The procedure:
(§1) A cell strain: Hepatoma HepG2, cervical cancer Hela, lung cancer A549, breast cancer MCF7 cell line and human normal liver cell HL7702 were purchased from Wuhan Boster Biological Technology Co., Ltd.;
(§2) HepG2, Hela, A549, MCF 7 cells in logarithmic growth phase and human normal hepatocytes HL7702 were centrifuged at 1500 rpm for 5 min, and the supernatant was discarded; the cells were digested with a suitable amount of trypsin, and then suspended with a suitable amount of culture medium (HepG2, Hela and HL7702 cells were suspended with penicillin-streptomycin RPMI1640 culture medium containing 10% calf serum, A549 and MCF 7 cells with penicillin-streptomycin high glucose DMEM culture medium containing 10% calf serum, to adjust the cell concentration to 1.5×10^4 cells/well, the cells were seeded in 96-well plates, and the following experimental groups were set:
(§3) 0.10 mL of the cell suspension was added to each well, and incubated at 37° C., 5% CO2 and saturated humidity for 12 h, and the culture medium was discarded when the cell density was nearly 70%. […] 100 μl of 5 mg/ml MTT was added per well, standing for 4 h at 37° C. 100 μl of DMSO was added to each well, followed by shaking on a shaker for 10 min at 37° C., the absorbance (OD) was measured at 492 nm, and the MTT ratio was calculated as the OD value of drug group/OD value of negative control group.

For test [2], the system named is Hepatoma HepG2. Particulars: cultured 48 h, MTT. The procedure:
as §1, §2, §3

The subject of test [3] is lung cancer A549. Particulars: cultured 48 h, MTT. The procedure: as §1, §2, §3
The subject of test [4] is breast cancer MCF7 cell line. Particulars: cultured 48 h, MTT. The procedure: as §1, §2, §3
Test [5] concerns cervical cancer Hela. Particulars: cultured 48 h, MTT. The procedure: as §1, §2, §3

As a reminder, the IC50 is the concentration at which inhibition is half-maximal. A low value points to inhibition by little substance. As to `COc1cc([C@@H]2c3cc4c(cc3[C@@H](Nc3ccc5c(c3)C(=O)c3ccccc3C5=O)[C@@H]3COC(=O)[C@H]23)OCO4)cc(OC)c1O` [Compound 21, 4β-NH-(2-aminoanthraquinone)-4′-demethylepipodophyllotoxin], the IC50 is 55.4 ± 6.2 µM in test [1]; 1.1 ± 0.4 µM in test [2]; more than 100 µM in test [3]; 4 ± 0.5 µM in test [4]; 1.9 ± 0.3 µM in test [5].

For `COc1cc(C2c3cc4c(cc3C(Nc3ccc5c(c3N)C(=O)c3ccccc3C5=O)C3COC(=O)C23)OCO4)cc(OC)c1O` (stereo not drawn) [Compound 22, 4β-NH-(1,2-diaminoanthraquinone)-4′-demethylepipodophyllotoxin], the IC50 is more than 100 µM in test [1]; more than 100 µM in test [2]; more than 100 µM in test [3]; 18.1 ± 2.8 µM in test [4]; more than 100 µM in test [5].

As to `COc1cc([C@@H]2c3cc4c(cc3[C@@H](Nc3cccc5c3C(=O)c3cccc(N)c3C5=O)[C@@H]3COC(=O)[C@H]23)OCO4)cc(OC)c1O` [Compound 23, 4β-NH-(1,5-diaminoanthraquinone)-4′-demethylepipodophyllotoxin], the IC50 in test [1], in test [2], in test [3], in test [4] and in test [5] was more than 100 µM each time.

As for `COc1cc(C2c3cc4c(cc3C(Nc3ccc5c(c3)C(=O)c3ccc(N)cc3C5=O)C3COC(=O)C23)OCO4)cc(OC)c1O` (stereo not drawn) [Compound 24, 4β-NH-(2,6-diaminoanthraquinone)-4′-demethylepipodophyllotoxin], the half-maximal inhibitory concentration (IC50) in test [1] is more than 100 µM; in test [2] it was more than 100 µM; in test [3], more than 100 µM; in test [4] it was 4.2 ± 1.1 µM; in test [5], more than 100 µM.

Turning to `COc1cc([C@@H]2c3cc4c(cc3[C@@H](Nc3nc(N)nc5ccccc35)[C@@H]3COC(=O)[C@H]23)OCO4)cc(OC)c1O` [Compound 25, 4β-NH-(2,4-quinazolinediamine)-4′-demethylepipodophyllotoxin], the IC50 was determined as 16.9 ± 2.5 µM in test [1]; 9.8 ± 1.7 µM in test [2]; 3.6 ± 0.8 µM in test [3]; 6.1 ± 1.3 µM in test [4]; 3.6 ± 0.9 µM in test [5].

For the molecule `COc1cc(C2c3cc4c(cc3C(Nc3ccc5ncccc5c3)C3COC(=O)C23)OCO4)cc(OC)c1O` (stereo not drawn) [Compound 26, 4β-NH-(6-aminoquinoline)-4′-demethylepipodophyllotoxin], the IC50 was 22.8 ± 4.2 µM in test [1]; 10 ± 1.9 µM in test [2]; 2 ± 0.5 µM in test [3]; 4.3 ± 0.8 µM in test [4]; 5.7 ± 1.1 µM in test [5].

Regarding `COc1cc(C2c3cc4c(cc3C(Nc3cccc5ncccc35)C3COC(=O)C23)OCO4)cc(OC)c1O` (stereo not drawn) [Compound 27, 4β-NH-(5-aminoquinoline)-4′-demethylepipodophyllotoxin], the concentration for half-maximal inhibition (IC50) came out at 15.6 ± 1.8 µM in test [1]; 1.6 ± 0.8 µM in test [2]; 1.3 ± 0.2 µM in test [3]; 2.4 ± 0.9 µM in test [4]; 2.1 ± 1 µM in test [5].

Regarding `COc1cc(C2c3cc4c(cc3C(Nc3cccc5cnccc35)C3COC(=O)C23)OCO4)cc(OC)c1O` (stereo not drawn) [Compound 28, 4β-NH-(5-aminoisoquinoline)-4′-demethylepipodophyllotoxin], the concentration for half-maximal inhibition (IC50) in test [1] was found to be 19.8 ± 2.1 µM; in test [2], 2.8 ± 1.6 µM; in test [3] it was 1.4 ± 0.6 µM; in test [4], 2.5 ± 0.9 µM; in test [5], 1.9 ± 0.9 µM.

For `COc1cc([C@@H]2c3cc4c(cc3[C@@H](Nc3cccc5cccnc35)[C@@H]3COC(=O)[C@H]23)OCO4)cc(OC)c1O` [Compound 29, 4β-NH-(8-aminoquinoline)-4′-demethylepipodophyllotoxin], the 50% inhibitory concentration (IC50) in test [1] came to 73 ± 7.8 µM; in test [2], 4.5 ± 1.5 µM; in test [3], 2.8 ± 0.4 µM; in test [4] it was 1.5 ± 0.4 µM; in test [5] it was 3.8 ± 0.2 µM.

These data come from patent publication US11319328B2 (priority 2017, dated 2022).
